Measurements taken from patent publication US10617664B2, “Brain derived PPARα ligands” (Rush University Medical Center, priority 2015, dated 2020).

Biological target: T1, Y314D-Ppara (Mus musculus, UniProt P23204, Y314D)
T1 construct: the entire mouse GFP-Ppara gene (GFP-FLPpara) and three different mutated genes were cloned; expressed in transfected cells; host or cells: Ppara-null mouse hippocampal neurons, lentiviral transduction
T1 sequence (P23204 1-468 Y314D): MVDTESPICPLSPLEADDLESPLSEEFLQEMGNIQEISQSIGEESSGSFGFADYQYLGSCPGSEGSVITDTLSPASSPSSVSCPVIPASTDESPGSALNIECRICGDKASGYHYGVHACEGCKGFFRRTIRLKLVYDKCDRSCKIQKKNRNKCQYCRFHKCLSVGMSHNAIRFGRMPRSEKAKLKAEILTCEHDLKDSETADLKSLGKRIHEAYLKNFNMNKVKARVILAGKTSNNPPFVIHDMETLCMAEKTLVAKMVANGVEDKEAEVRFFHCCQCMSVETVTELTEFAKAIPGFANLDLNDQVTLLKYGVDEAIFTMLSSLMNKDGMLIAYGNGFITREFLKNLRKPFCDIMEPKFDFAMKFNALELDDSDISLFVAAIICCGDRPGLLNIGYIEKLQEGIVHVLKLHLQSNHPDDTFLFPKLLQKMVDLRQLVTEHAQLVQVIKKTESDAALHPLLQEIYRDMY
Test: GC-MS of GFP-affinity purified extract of transduced Ppara-null hippocampal neurons
Format: binding
Settings: lenti-GFP-Y314D-Ppara transduced Ppara-null neurons
Method: Lentivirus-mediated de novo expression studies were performed, where wild type full-length (GFP-FLPpara) was overexpressed and three different LBD-mutated PPARα (GFP-Y314D, GFP-Y464D and GFP-Y314D/Y464D Ppara) recombinant proteins (FIG. 9D) were expressed in neurons followed by binding analyses with three endogenous ligands. Briefly, site directed mutagenesis was performed in the mouse PPARα with Y314 and Y464 residues replaced separately or together with aspartate (D). […] We normalized peak area of different ligands with that of internal standard and then quantified the binding affinity of these ligands with different construct of PPARα by peak integration statistics (Table 1).
Either E18 cultured mouse hippocampal neurons or hippocampal tissue of 6-8 week old male C57/BL6 mice were homogenized in ice-cold nondetergent hypotonic buffer [10 mM HEPES (pH 7.9), 1.5 mM MgCl2, 10 mM KCl, […], protease and phosphatase inhibitor cocktail]. […] The organic phase was collected, evaporated in the SpeedVac, reconstituted with 30 μL chloroform or acetonitrile, and then analyzed by GC-MS. […] After that, the eluate was collected from the column with 5M NaCl solution, concentrated with PD-10 desalting column and analyzed for GC-MS. […]

Compound	amount detected in nuclear extract by GC-MS
CCCCCCCCCCCCCCCC(N)=O [HEX, hexadecanamide]	low amount
CCCCCCCCC=CCCCCCCCC(N)=O [OCT, 9-octadecenamide]	low amount
